For nine compounds, TGI and GI50 results are on record in PubChem BioAssay (NCI).

Test systems include DLD-1 colon; DMS 273 small cell lung; LXFL 529 NSCLC; XF 498 CNS; KM20L2 colon; SNB-78 CNS; DMS 114 small cell lung; HOP-18 NSCLC; OVCAR-5 ovarian; M19-MEL melanoma; RXF-631 renal.
Holding throughout (assay): DTP human tumour cell line panel, 48 h

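Five concentrations, 48 hours, 96-well plates. At the GI50, growth is halved. TGI is the concentration that stops growth completely.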 A value given as a limit tells only on which side of the number the result lay.

As usually defined, the TGI is the concentration at which net growth stops. The term GI50 denotes the concentration giving 50% growth inhibition. For `N#Cc1nn(-c2ccc(Cl)cc2)c(N)c2c(=N)n3nc(-c4ccccc4)cc3nc12`, the TGI in the assay on DLD-1 colon is greater than 64.2 µM; in the assay with DMS 273 small cell lung it was greater than 100 µM; in the assay with LXFL 529 NSCLC it was greater than 54.4 µM; in the assay with XF 498 CNS, greater than 100 µM; with KM20L2 colon, greater than 100 µM; in the assay on SNB-78 CNS it was greater than 100 µM. For the same compound, the GI50 with SNB-78 CNS is greater than 100 µM.

Take `C[C@H](NC(=O)OC1C2C=CC(O)C1CC2)c1ccccc1` (stereo partly drawn): the TGI in the assay on DLD-1 colon, with DMS 273 small cell lung, in the assay on LXFL 529 NSCLC, with XF 498 CNS, with DMS 114 small cell lung and in the assay with HOP-18 NSCLC was greater than 100 µM each time. In addition, the TGI in the assay on OVCAR-5 ovarian, with KM20L2 colon and in the assay with SNB-78 CNS was greater than 100 µM in each case.

For `C=C1C(=O)OC2C(C)C3C=CC(=O)[C@@]3(C)C(OC(=O)/C(C)=C/C)C1[C@@H]2OC(C)=O` (stereo partly drawn), the TGI came to 1.79 µM in the assay on DLD-1 colon; 1.81 µM with DMS 273 small cell lung; 1.16 µM in the assay on LXFL 529 NSCLC; 2.53 µM with XF 498 CNS; 2.37 µM in the assay on DMS 114 small cell lung; 3.28 µM in the assay with HOP-18 NSCLC. The TGI in the assay on M19-MEL melanoma is 1.84 µM; with OVCAR-5 ovarian, 3.32 µM; with KM20L2 colon it was 2.99 µM; with SNB-78 CNS it was 2.8 µM.

On to `Cc1c(Cl)cccc1NC(=O)C(=O)C1C(=O)NC(=O)NC1=O`, for which the TGI in the assay on DLD-1 colon, in the assay with DMS 273 small cell lung, in the assay on LXFL 529 NSCLC, in the assay with XF 498 CNS, in the assay on HOP-18 NSCLC and in the assay on M19-MEL melanoma was greater than 100 µM throughout. The TGI in the assay with OVCAR-5 ovarian, with KM20L2 colon and in the assay with SNB-78 CNS was greater than 100 µM in each case.

Turning to `COc1cc(/C=C\c2ccc(SC)cc2)cc(OC)c1OC`, the TGI with DLD-1 colon is greater than 100 µM; with DMS 273 small cell lung it was 1.95 µM; with LXFL 529 NSCLC, 5.38 µM; in the assay on XF 498 CNS, 19.8 µM; in the assay on DMS 114 small cell lung it was 0.268 µM; in the assay with HOP-18 NSCLC, 11.6 µM. Also, the TGI is greater than 100 µM with M19-MEL melanoma, greater than 18.5 µM in the assay with OVCAR-5 ovarian, 0.0448 µM with KM20L2 colon and greater than 100 µM with SNB-78 CNS.

Consider `CCOC(=O)[C@H]1Nc2ccc(O)cc2C2c3ccccc3CC21` (stereo partly drawn), for which the TGI in the assay with DLD-1 colon, in the assay with DMS 273 small cell lung, in the assay with LXFL 529 NSCLC, in the assay on RXF-631 renal, in the assay with DMS 114 small cell lung and in the assay with HOP-18 NSCLC was greater than 100 µM in each case. Moreover, the TGI in the assay on M19-MEL melanoma, in the assay with OVCAR-5 ovarian, in the assay on KM20L2 colon and in the assay with SNB-78 CNS was greater than 100 µM each time.

For `OC(Cn1cncn1)(Cn1cncn1)c1ccc(Cl)cc1Cl`, the TGI in the assay with DLD-1 colon, with DMS 273 small cell lung, with LXFL 529 NSCLC, in the assay on DMS 114 small cell lung, in the assay on HOP-18 NSCLC and with M19-MEL melanoma was greater than 100 µM each time. In addition, the TGI in the assay with OVCAR-5 ovarian, in the assay with KM20L2 colon and in the assay with SNB-78 CNS was greater than 100 µM in each case.

On to `CC(=O)OCCOCNC(=S)N/N=C(\C)c1ccco1`, for which the TGI in the assay on DLD-1 colon, with DMS 273 small cell lung, in the assay on LXFL 529 NSCLC, with RXF-631 renal, in the assay on DMS 114 small cell lung and in the assay on HOP-18 NSCLC was greater than 100 µM throughout. Moreover, the TGI in the assay with M19-MEL melanoma, with OVCAR-5 ovarian, with KM20L2 colon and with SNB-78 CNS was greater than 100 µM throughout.

Turning to `CC(C)(C)NNc1c([N+](=O)[O-])cnn(-c2ccccc2)c1=O`, the concentration for total growth inhibition (TGI) in the assay on DLD-1 colon came out at 9.52 µM; in the assay on DMS 273 small cell lung it was 10.4 µM; in the assay with LXFL 529 NSCLC, 3.25 µM; with XF 498 CNS, 5.22 µM; with HOP-18 NSCLC, 32 µM; with M19-MEL melanoma, 5.61 µM. In addition, the TGI with OVCAR-5 ovarian amounted to 15.5 µM; in the assay on KM20L2 colon, 13.1 µM; in the assay on SNB-78 CNS, 58.7 µM.
